In paper PMC9381674 (Cardiology and Therapy, 2022):
Where two headings read alike, the source gives them in different places.

Key:
[1] = compared to intravenous administration; extensive first-pass effect; cited from earlier work
P-gp = conditions: inhibitor for P-gp; cited from earlier work
CYP3A4/5 [2] = conditions: strong index inhibitor of CYP3A4/5; cited from earlier work
P-glycoprotein (P-gp) = conditions: preclinical results; ref unpublished data; cited from earlier work
Safety assessments = format: in vivo, human; conditions: single dose of milvexian alone and in combination with itraconazole or diltiazem
[3] = format: in vivo, human
[4] = test system: arterial and venous thrombosis; conditions: preclinical models of arterial and venous thrombosis; cited from earlier work
CYP3A4/5 [5] = conditions: preclinical results; ref unpublished data; cited from earlier work
[6] = co-administration of itraconazole

In the case of `COc1ccc([C@@H]2Sc3ccccc3N(CCN(C)C)C(=O)[C@@H]2OC(C)=O)cc1` [Diltiazem], the absolute oral bioavailability [1] is listed as “about 40%”.

For `CCC(C)n1ncn(-c2ccc(N3CCN(c4ccc(OCC5COC(Cn6cncn6)(c6ccc(Cl)cc6Cl)O5)cc4)CC3)cc2)c1=O` (stereo not shown) [Itraconazole], the “increase in the AUC of digoxin” value (P-gp) is given as greater than 1.25 fold and the “increase in the AUC of sensitive substrates” value (CYP3A4/5 [2]) is given as no less than 10 fold.

For `C[C@@H]1CCC[C@H](n2cnc(-c3cc(Cl)ccc3-n3cc(Cl)nn3)cc2=O)c2cc(ccn2)-c2c(cnn2C(F)F)NC1=O` [Milvexian], the “substrate for P-glycoprotein” value (P-glycoprotein (P-gp)) is listed as “substrate for P-glycoprotein”, the “deaths or serious AEs during the study” value (Safety assessments) is listed as “no deaths or serious AEs” and the “AUC(0–T) higher compared with milvexian alone” value ([3]; co-administration of diltiazem) is listed as 38%. For the same compound, the “AUC(INF) higher compared with milvexian alone” value ([3]; co-administration of diltiazem) was 38%, the “C24 higher compared with milvexian alone” value ([3]; co-administration of diltiazem) was 64% and the “mean Cmax higher compared with milvexian alone” value ([3]; co-administration of diltiazem) was 9.6%. The “mean T1/2 longer compared with milvexian alone” value ([3]; co-administration of diltiazem) was roughly 1.1 fold, the “AUC(0–T) higher compared with milvexian alone” value [3, 6] was 2.5 fold and the “AUC(INF) higher compared with milvexian alone” value [3, 6] was 2.5 fold. For the same compound, the “C24 higher compared with milvexian alone” value [3, 6] was 3.8 fold, the “mean T1/2 longer compared with milvexian alone” value [3, 6] was “approximately 1.5 fold” and the “effect of co-administration on median Tmax of milvexian” value ([3]; co-administration of itraconazole or diltiazem) was “not altered”. The “impact of a moderate CYP3A inhibitor on milvexian exposure” value ([3]; diltiazem co-administration) was “less than 2.5 fold”, the “impact of a strong CYP3A inhibitor on milvexian exposure” value ([3]; itraconazole co-administration) was less than 5 fold and the antithrombotic activity [4] was “demonstrated antithrombotic activity while preserving homeostasis”. For the same compound, the “substrate of CYP3A4/5” value (CYP3A4/5 [5]) was “substrate of CYP3A4/5”.
